Assay results taken from the supplement of paper PMC10307832.

Assays:
Experiment in all cases: relative viability (nuclei count vs DMSO), 5 days (fraction); higher = more cells survive
Everolimus + Palbociclib = compound: CO[C@H]1C[C@@H]2CC[C@@H](C)[C@@](O)(O2)C(=O)C(=O)N2CCCC[C@H]2C(=O)O[C@H]([C@H](C)C[C@@H]2CC[C@@H](OCCO)[C@H](OC)C2)CC(=O)[C@H](C)/C=C(\C)[C@@H](O)[C@@H](OC)C(=O)[C@H](C)C[C@H](C)/C=C/C=C/C=C/1C [Everolimus] + CC(=O)c1c(C)c2cnc(Nc3ccc(N4CCNCC4)cn3)nc2n(C2CCCC2)c1=O [Palbociclib] (partner 0.5 µM)
Summary of the method: (§1)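 After 5 days of treatment, lung cancer cells in 1536-well plates were fixed and stained in a single step (final 0.05% Triton X-100, 1% formaldehyde, 1 ug/ml Hoechst) and their nuclei counted on 4× images. Treatment had been applied by pin tool the day after seeding as one drug alone or as a fixed anchor-drug dose with five library-drug doses (not always all listed) in √10 steps. Relative viability is the nuclei count of treated wells divided by that of vehicle wells, and values are medians of duplicate plates.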

Everolimus + Pictilisib = compound: CO[C@H]1C[C@@H]2CC[C@@H](C)[C@@](O)(O2)C(=O)C(=O)N2CCCC[C@H]2C(=O)O[C@H]([C@H](C)C[C@@H]2CC[C@@H](OCCO)[C@H](OC)C2)CC(=O)[C@H](C)/C=C(\C)[C@@H](O)[C@@H](OC)C(=O)[C@H](C)C[C@H](C)/C=C/C=C/C=C/1C [Everolimus] + CS(=O)(=O)N1CCN(Cc2cc3nc(-c4cccc5[nH]ncc45)nc(N4CCOCC4)c3s2)CC1 [Pictilisib] (partner 1 µM)
Summary of the method: as §1

Everolimus + Phenformin = compound: CO[C@H]1C[C@@H]2CC[C@@H](C)[C@@](O)(O2)C(=O)C(=O)N2CCCC[C@H]2C(=O)O[C@H]([C@H](C)C[C@@H]2CC[C@@H](OCCO)[C@H](OC)C2)CC(=O)[C@H](C)/C=C(\C)[C@@H](O)[C@@H](OC)C(=O)[C@H](C)C[C@H](C)/C=C/C=C/C=C/1C [Everolimus] + N=C(N)NC(=N)NCCc1ccccc1 [Phenformin] (partner 250 µM)
Summary of the method: as §1

Everolimus + Decitabine = compound: CO[C@H]1C[C@@H]2CC[C@@H](C)[C@@](O)(O2)C(=O)C(=O)N2CCCC[C@H]2C(=O)O[C@H]([C@H](C)C[C@@H]2CC[C@@H](OCCO)[C@H](OC)C2)CC(=O)[C@H](C)/C=C(\C)[C@@H](O)[C@@H](OC)C(=O)[C@H](C)C[C@H](C)/C=C/C=C/C=C/1C [Everolimus] + Nc1ncn([C@H]2C[C@H](O)[C@@H](CO)O2)c(=O)n1 [Decitabine] (partner 2 µM)
Summary of the method: as §1

Cell Line	relative viability (Everolimus + Palbociclib; first compound 0.01 µM)	relative viability (Everolimus + Palbociclib; first compound 0.03162 µM)	relative viability (Everolimus + Palbociclib; first compound 0.1 µM)	relative viability (Everolimus + Palbociclib; first compound 0.3162 µM)	relative viability (Everolimus + Palbociclib; first compound 1 µM)	relative viability (Everolimus + Pictilisib; first compound 0.01 µM)	relative viability (Everolimus + Pictilisib; first compound 0.03162 µM)	relative viability (Everolimus + Pictilisib; first compound 0.1 µM)	relative viability (Everolimus + Pictilisib; first compound 0.3162 µM)	relative viability (Everolimus + Pictilisib; first compound 1 µM)	relative viability (Everolimus + Phenformin; first compound 0.01 µM)	relative viability (Everolimus + Phenformin; first compound 0.03162 µM)	relative viability (Everolimus + Phenformin; first compound 0.1 µM)	relative viability (Everolimus + Phenformin; first compound 0.3162 µM)	relative viability (Everolimus + Phenformin; first compound 1 µM)	relative viability (Everolimus + Decitabine; first compound 0.01 µM)	relative viability (Everolimus + Decitabine; first compound 0.03162 µM)	relative viability (Everolimus + Decitabine; first compound 0.1 µM)	relative viability (Everolimus + Decitabine; first compound 0.3162 µM)	relative viability (Everolimus + Decitabine; first compound 1 µM)
NCI-H1666	0.567	0.642	0.599	0.693	0.631	0.295	0.344	0.309	0.341	0.295	0.555	0.575	0.617	0.577	0.539	0.676	0.553	0.639	0.75	0.672
NCI-H1355	0.229	0.233	0.207	0.213	0.21	0.251	0.238	0.181	0.265	0.275	0.394	0.364	0.335	0.332	0.345	0.353	0.3	0.305	0.318	0.261
HCC-827	0.459	0.409	0.331	0.479	0.277	0.957	0.875	0.781	0.863	0.611	0.434	0.404	0.416	0.396	0.403	0.282	0.234	0.303	0.319	0.287
HARA	0.242	0.189	0.218	0.241	0.169	0.236	0.278	0.227	0.228	0.238	0.412	0.489	–	0.419	0.466	0.451	0.426	0.426	0.572	0.474
HCC-366	0.337	0.156	0.216	0.207	0.106	0.116	0.0953	0.131	0.11	0.138	0.59	0.613	0.601	0.528	0.582	0.301	0.226	0.257	0.291	0.212
NCI-H322M	0.473	0.454	0.409	0.47	0.424	0.445	0.445	0.352	0.429	0.397	0.647	0.658	0.629	0.714	0.701	0.766	0.7	0.585	0.596	0.609
NCI-H2347	0.386	0.403	0.401	0.424	0.373	0.288	0.281	0.4	0.368	0.358	0.388	0.353	0.351	0.384	0.26	0.567	0.509	0.553	0.526	0.548
NCI-H1975	0.481	0.398	0.524	0.454	0.358	0.223	0.242	0.194	0.211	0.199	0.378	0.383	0.387	0.367	0.323	0.365	0.425	0.327	0.385	0.337
